Measured values: patent publication US12054494B2, “Compound with anticancer activity” (KYOWA KIRIN CO., LTD., priority 2018, dated 2024)

The compounds below were run on SU-DHL-4 cells (assay: Inhibitory effect on cell viability (Cell Counting Kit-8)). Settings: Homo sapiens, 72 hours culture with test compound, concentration showing 90% inhibition rate of cell viability.
Type: cell-based
Procedure, shortened: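 IC90 corresponds to 90% loss of viability, measured as CCK-8 absorbance at 450 nm (2-3 h colour development). Compounds in 9 dilutions (0.1% DMSO) were applied for 72 h at 37° C to SU-DHL-4 lymphoma cells seeded at 2000/well in RPMI1640/10% FBS after 18-25 h preculture.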

Structure (SMILES) | IC90
CCC(=O)N1c2ccccc2[C@H](Nc2ccc(CCCC(=O)Nc3ccc(N[C@@H]4C[C@H](C)N(C(=O)CC)c5ccccc54)cc3)cc2)C[C@@H]1C [Compound 5r, N,4-Bis(4-(((2S,4R)-2-methyl-1-propionyl-1,2,3,4-tetrahydroquinolin-4-yl)amino)phenyl)butanamide] | 1.78 nM
CCC(=O)N1c2ccccc2[C@H](NCCCC(=O)NCCn2cc(-c3ccc(N[C@@H]4C[C@H](C)N(C(=O)CC)c5ccccc54)cc3)cn2)C[C@@H]1C (relative stereo) [Compound 12i, 4-(((2S*,4R*)-2-Methyl-1-propionyl-1,2,3,4-tetrahydroquinolin-4-yl)amino)-N-(2-(4-(4-(((2S,4R)-2-methyl-1-propionyl-1,2,3,4-tetrahydroquinolin-4-yl)amino)phenyl)-1H-pyrazol-1-yl)ethyl)butanamide] | 3.68 nM
CCC(=O)N1c2ccccc2[C@H](Nc2ccc(NC(=O)CCS(=O)(=O)c3ccc(N[C@@H]4C[C@H](C)N(C(=O)CC)c5ccccc54)cc3)cc2)C[C@@H]1C [Compound 5l, N-(4-(((2S,4R)-2-Methyl-1-propionyl-1,2,3,4-tetrahydroquinolin-4-yl)amino)phenyl)-3-((4-(((2S,4R)-2-methyl-1-propionyl-1,2,3,4-tetrahydroquinolin-4-yl)amino)phenyl)sulfonyl)propanamide] | 37 nM
CCC(=O)N1c2ccccc2[C@H](Nc2ccc(NC(=O)Cc3cn(-c4ccc(N[C@@H]5C[C@H](C)N(C(=O)CC)c6ccccc65)cc4)nn3)cc2)C[C@@H]1C (relative stereo) [Compound 6i, N-(4-(((2S*,4R*)-2-Methyl-1-propionyl-1,2,3,4-tetrahydroquinolin-4-yl)amino)phenyl)-2-(1-(4-(((2S*,4R*)-2-methyl-1-propionyl-1,2,3,4-tetrahydroquinolin-4-yl)amino)phenyl)-1H-1,2,3-triazol-4-yl)acetamide] | 0.11 nM
CCC(=O)N1c2ccccc2[C@H](Nc2ccc(NC(=O)NCC(=O)Nc3ccc(C4=NCc5nnc(C)n5-c5sc(C)c(C)c54)cc3)cc2)C[C@@H]1C [Compound 14h, 2-(3-(4-(((2S,4R)-2-Methyl-1-propionyl-1,2,3,4-tetrahydroquinolin-4-yl)amino)phenyl)ureido)-N-(4-(2,3,9-trimethyl-6H-thieno[3,2-f][1,2,4]triazolo[4,3-a][1,4]diazepin-4-yl)phenyl)acetamide] | 0.34 nM
CCC(=O)N1c2ccccc2[C@H](Nc2ccc(NC(=O)C3CCN(C(=O)c4ccc(N[C@@H]5C[C@H](C)N(C(=O)CC)c6ccccc65)cc4)CC3)cc2)C[C@@H]1C (relative stereo) [Compound 2g, 1-(4-{[(2S,4R)-2-Methyl-1-propionyl-1,2,3,4-tetrahydroquinolin-4-yl]amino}benzoyl)-N-(4-{[(2S*,4R*)-2-methyl-1-propionyl-1,2,3,4-tetrahydroquinolin-4-yl]amino}phenyl)piperidine-4-carboxamide] | 0.63 nM
CCC(=O)N1c2ccccc2[C@H](Nc2ccc(-n3cc(CNC(=O)c4ccc(C5=NCc6nnc(C)n6-c6sc(C)c(C)c65)cc4)nn3)cc2)C[C@@H]1C [Compound 14n, N-((1-(4-(((2S,4R)-2-Methyl-1-propionyl-1,2,3,4-tetrahydroquinolin-4-yl)amino)phenyl)-1H-1,2,3-triazol-4-yl)methyl)-4-(2,3,9-trimethyl-6H-thieno[3,2-f][1,2,4]triazolo[4,3-a][1,4]diazepin-4-yl)benzamide] | 0.05 nM
CCC(=O)N1c2ccccc2[C@H](Nc2ccc(NC(=O)CNC(=O)C=C3CCC(N[C@@H]4C[C@H](C)N(C(=O)CC)c5ccccc54)CC3)cc2)C[C@@H]1C (relative stereo) [Compound 15j, 2-(4-(((2S*,4R*)-2-Methyl-1-propionyl-1,2,3,4-tetrahydroquinolin-4-yl)amino)cyclohexylidene)-N-(2-((4-(((2S,4R)-2-methyl-1-propionyl-1,2,3,4-tetrahydroquinolin-4-yl)amino)phenyl)amino)-2-oxoethyl)acetamide] | 0.52 nM
CCC(=O)N1c2ccccc2[C@H](Nc2ccc(C(=O)N3CCn4c(C(O)c5ccc(N[C@@H]6C[C@H](C)N(C(=O)CC)c7ccccc76)cc5)cnc4C3)cc2)C[C@@H]1C (stereo partly drawn) [Compound 6a, 1-((2S,4R)-4-((4-(3-(Hydroxy(4-(((2S,4R)-2-methyl-1-propionyl-1,2,3,4-tetrahydroquinolin-4-yl)amino)phenyl)methyl)-5,6,7,8-tetrahydroimidazo[1,2-a]pyrazine-7-carbonyl)phenyl)amino)-2-methyl-3,4-dihydroquinolin-1(2H)-yl)propan-1-one] | 0.89 nM
CCC(=O)N1c2ccccc2[C@H](Nc2ccc(C(=O)NCc3ccc(-c4ccc(C5=NCc6nnc(C)n6-c6sc(C)c(C)c65)cc4)s3)cc2)C[C@@H]1C [Compound 14j, 4-(((2S,4R)-2-Methyl-1-propionyl-1,2,3,4-tetrahydroquinolin-4-yl)amino)-N-((5-(4-(2,3,9-trimethyl-6H-thieno[3,2-f][1,2,4]triazolo[4,3-a][1,4]diazepin-4-yl)phenyl)thiophen-2-yl)methyl)benzamide] | 0.74 nM
CCC(=O)N1c2ccc(F)cc2[C@H](Nc2ccc(C(=O)NCCCNC(=O)c3ccc(N[C@@H]4C[C@H](C)N(C(=O)CC)c5ccc(F)cc54)cc3)cc2)C[C@@H]1C [Compound 10q, N,N′-(Propane-1,3-diyl)bis(4-(((2S,4R)-6-fluoro-2-methyl-1-propionyl-1,2,3,4-tetrahydroquinolin-4-yl)amino)benzamide)] | 9.88 nM
CCC(=O)N1c2ccc(F)cc2[C@H](Nc2ccc(C(=O)NCCNC(=O)c3ccc(N[C@@H]4C[C@H](C)N(C(=O)CC)c5ccc(F)cc54)cc3)cc2)C[C@@H]1C [Compound 10r, N,N′-(Ethane-1,2-diyl)bis(4-(((2S,4R)-6-fluoro-2-methyl-1-propionyl-1,2,3,4-tetrahydroquinolin-4-yl)amino)benzamide)] | 9.16 nM

Further lines, results first:

IC90 | Structure (SMILES)
0.01 nM | CCC(=O)N1c2ccccc2[C@H](Nc2ccc(C(=O)NCC#CC(=O)Nc3ccc(N[C@@H]4C[C@H](C)N(C(=O)CC)c5ccccc54)nc3)cc2)C[C@@H]1C (relative stereo) [Compound 10n, 4-(((2S,4R)-2-Methyl-1-propionyl-1,2,3,4-tetrahydroquinolin-4-yl)amino)-N-(4-((6-(((2S*,4R*)-2-methyl-1-propionyl-1,2,3,4-tetrahydroquinolin-4-yl)amino)pyridin-3-yl)amino)-4-oxobut-2-yn-1-yl)benzamide]
16.3 nM | CCC(=O)N1c2ccccc2[C@H](Nc2ccc(NC(=O)[C@@H](NC(=O)c3ccc(N[C@@H]4C[C@H](C)N(C(=O)CC)c5ccccc54)cc3)C(C)C)cc2)C[C@@H]1C (relative stereo) [Compound 2e, N-{(S)-3-Methyl-1-[(4-{[(2S*,4R*)-2-methyl-1-propionyl-1,2,3,4-tetrahydroquinolin-4-yl]amino}phenyl)amino]-1-oxobutan-2-yl}-4-{[(2S,4R)-2-methyl-1-propionyl-1,2,3,4-tetrahydroquinolin-4-yl]amino}benzamide]
0.67 nM | CCC(=O)N1c2ccccc2[C@H](Nc2ccc(NC(=O)CNCC(=O)Nc3ccc(N[C@@H]4C[C@H](C)N(C(=O)CC)c5ccccc54)cc3)cc2)C[C@@H]1C [Compound 5d, 2,2′-Azanediylbis(N-(4-(((2S,4R)-2-methyl-1-propionyl-1,2,3,4-tetrahydroquinolin-4-yl)amino)phenyl)acetamide)]
0.14 nM | CCC(=O)N1c2ccccc2[C@H](Nc2ccc(NC(=O)COCC(=O)Nc3ccc(N[C@@H]4C[C@H](C)N(C(=O)CC)c5ccccc54)cc3)cc2)C[C@@H]1C [Compound 5o, 2,2′-Oxybis(N-(4-(((2S,4R)-2-methyl-1-propionyl-1,2,3,4-tetrahydroquinolin-4-yl)amino)phenyl)acetamide)]
0.93 nM | CCC(=O)N1c2ccccc2[C@H](Nc2ccc(NC(=O)CCCC(=O)Nc3ccc(N[C@@H]4C[C@H](C)N(C(=O)CC)c5ccccc54)nc3)cc2)C[C@@H]1C [Compound 10k, N^1-(4-(((2S,4R)-2-Methyl-1-propionyl-1,2,3,4-tetrahydroquinolin-4-yl)amino)phenyl)-N^5-(6-(((2S,4R)-2-methyl-1-propionyl-1,2,3,4-tetrahydroquinolin-4-yl)amino)pyridin-3-yl)glutaramide]
1.08 nM | CCC(=O)N1c2ccccc2[C@H](Nc2ccc(NC(=O)CCCC(=O)Nc3ccc(N[C@@H]4C[C@H](C)N(C(=O)CC)c5ccccc54)cn3)cc2)C[C@@H]1C (relative stereo) [Compound 10l, N^1-(4-(((2S,4R)-2-Methyl-1-propionyl-1,2,3,4-tetrahydroquinolin-4-yl)amino)phenyl)-N^5-(5-(((2S*,4R*)-2-methyl-1-propionyl-1,2,3,4-tetrahydroquinolin-4-yl)amino)pyridin-2-yl)glutaramide]
30.9 nM | CCC(=O)N1c2ccccc2[C@H](Nc2ccc(C(=O)N3CCC(C(=O)Nc4ccc(N[C@@H]5C[C@H](C)N(C(=O)CC)c6ccccc65)nc4)CC3)cc2)C[C@@H]1C (relative stereo) [Compound 10m, 1-(4-(((2S,4R)-2-Methyl-1-propionyl-1,2,3,4-tetrahydroquinolin-4-yl)amino)benzoyl)-N-(6-(((2S*,4R*)-2-methyl-1-propionyl-1,2,3,4-tetrahydroquinolin-4-yl)amino)pyridin-3-yl)piperidine-4-carboxamide]
1.84 nM | CCC(=O)N1c2ccccc2[C@H](Nc2ccc(NC(=O)[C@@H]3CCN(C(=O)c4ccc(N[C@@H]5C[C@H](C)N(C(=O)CC)c6ccccc65)cc4)C3)cc2)C[C@@H]1C (relative stereo) [Compound 2i, (R)-1-(4-{[(2S,4R)-2-Methyl-1-propionyl-1,2,3,4-tetrahydroquinolin-4-yl]amino}benzoyl)-N-(4-{[(2S*,4R*)-2-methyl-1-propionyl-1,2,3,4-tetrahydroquinolin-4-yl]amino}phenyl)pyrrolidine-3-carboxamide]
